# Measurements from US12570642B2, “GLP-IR modulating compounds” (Gilead Sciences, Inc., priority 2021, dated 2026).
# Target: GLP-1R (Homo sapiens, UniProt P43220)
# Assay: GLP-1R Activation - cAMP Assay
# Format: cell-based
# Settings: cAMP increase in CHO cells stably expressing GLP-1R; each compound run on one of the two cAMP assays (Assay 1 or Assay 2, not specified)
# Outline: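 cAMP rise read by HTRF after 30 min agonist exposure (10-point titration, 37 °C) in HBSS/20 mM Hepes/0.1% BSA, following 1 h pre-incubation. Cells: stable GLP-1R CHO line, 1,000/well, seeded overnight. Sigmoidal fit of response vs log concentration gives EC50.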
# Chain of GLP-1R (P43220 24-463): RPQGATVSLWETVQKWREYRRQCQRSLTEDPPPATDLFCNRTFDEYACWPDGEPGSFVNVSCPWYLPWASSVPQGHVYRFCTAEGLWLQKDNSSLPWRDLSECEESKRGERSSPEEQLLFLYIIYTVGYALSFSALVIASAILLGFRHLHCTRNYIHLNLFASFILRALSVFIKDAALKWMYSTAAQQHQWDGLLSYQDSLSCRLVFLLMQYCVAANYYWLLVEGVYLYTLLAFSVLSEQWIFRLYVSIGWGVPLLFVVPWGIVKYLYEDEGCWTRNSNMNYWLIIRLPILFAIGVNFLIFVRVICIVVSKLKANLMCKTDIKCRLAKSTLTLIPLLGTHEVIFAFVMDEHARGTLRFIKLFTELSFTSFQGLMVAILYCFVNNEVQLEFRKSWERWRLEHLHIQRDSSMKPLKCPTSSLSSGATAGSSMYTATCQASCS
row,EC50 [nM],Compound
1,0.025,"CC1(C)COC[C@H]1n1c(Cc2ccc(-c3ccc(F)c(OCc4ccc(C#N)cc4F)n3)cc2F)nc2c(F)cc(C(=O)O)cc21 [Example 337, (S)-2-(4-(6-((4-cyano-2-fluorobenzyl)oxy)-5-fluoropyridin-2-yl)-2-fluorobenzyl)-1-(4,4-dimethyltetrahydrofuran-3-yl)-4-fluoro-1H-benzo[d]imidazole-6-carboxylic acid]"
2,0.013,"COc1cc(Cl)ncc1COc1nc(-c2cc(F)c(Cc3nc4c(F)cc(C(=O)O)cc4n3[C@@H]3COCC3(C)C)c(F)c2F)ccc1F [Example 339, (S)-2-(4-(6-((6-chloro-4-methoxypyridin-3-yl)methoxy)-5-fluoropyridin-2-yl)-2,3,6-trifluorobenzyl)-1-(4,4-dimethyltetrahydrofuran-3-yl)-4-fluoro-1H-benzo[d]imidazole-6-carboxylic acid]"
3,0.005,"COc1cc(Cl)ncc1COc1nc(-c2cc(F)c(Cc3nc4c(F)cc(C(=O)O)cc4n3[C@@H]3COCC3(C)C)cc2F)ccc1F [Example 340, (S)-2-(4-(6-((6-chloro-4-methoxypyridin-3-yl)methoxy)-5-fluoropyridin-2-yl)-2,5-difluorobenzyl)-1-(4,4-dimethyltetrahydrofuran-3-yl)-4-fluoro-1H-benzo[d]imidazole-6-carboxylic acid]"
4,0.024,"COc1cc(Cl)ncc1COc1nc(-c2cc(F)c(Cc3nc4ccc(C(=O)O)cc4n3[C@@H]3COCC3(C)C)c(F)c2F)ccc1F [Example 341, (S)-2-(4-(6-((6-chloro-4-methoxypyridin-3-yl)methoxy)-5-fluoropyridin-2-yl)-2,3,6-trifluorobenzyl)-1-(4,4-dimethyltetrahydrofuran-3-yl)-1H-benzo[d]imidazole-6-carboxylic acid]"
5,0.012,"COc1cc(Cl)ncc1COc1nc(-c2cc(F)c(Cc3nc4ccc(C(=O)O)cc4n3[C@@H]3COCC3(C)C)cc2F)ccc1F [Example 342, (S)-2-(4-(6-((6-chloro-4-methoxypyridin-3-yl)methoxy)-5-fluoropyridin-2-yl)-2,5-difluorobenzyl)-1-(4,4-dimethyltetrahydrofuran-3-yl)-1H-benzo[d]imidazole-6-carboxylic acid]"
6,0.113,"CC1(C)COCC1n1c(Cc2cc(F)c(-c3ccnc(OCc4ccc(Cl)cc4F)n3)cc2Cl)nc2c(F)cc(C(=O)O)cc21 (centres unmarked) [Example 343, 2-(2-chloro-4-(2-((4-chloro-2-fluorobenzyl)oxy)pyrimidin-4-yl)-5-fluorobenzyl)-1-(4,4-dimethyltetrahydrofuran-3-yl)-4-fluoro-1H-benzo[d]imidazole-6-carboxylic acid]"
7,0.147,"CC1(C)COCC1n1c(Cc2cc(F)c(-c3ccnc(OCc4ccc(C(F)F)cc4F)n3)cc2Cl)nc2c(F)cc(C(=O)O)cc21 (centres unmarked) [Example 344, 2-(2-chloro-4-(2-((4-(difluoromethyl)-2-fluorobenzyl)oxy)pyrimidin-4-yl)-5-fluorobenzyl)-1-(4,4-dimethyltetrahydrofuran-3-yl)-4-fluoro-1H-benzo[d]imidazole-6-carboxylic acid]"
8,0.197,"CC1(C)COCC1n1c(Cc2cc(F)c(-c3ccc(F)c(OCc4ccc(C#N)cc4F)n3)cc2Cl)nc2ccc(C(=O)O)cc21 (centres unmarked) [Example 345, 2-(2-chloro-4-(6-((4-cyano-2-fluorobenzyl)oxy)-5-fluoropyridin-2-yl)-5-fluorobenzyl)-1-(4,4-dimethyltetrahydrofuran-3-yl)-1H-benzo[d]imidazole-6-carboxylic acid]"
9,0.075,"CC1(C)COCC1n1c(Cc2cc(F)c(-c3ccc(F)c(OCc4ccc(C#N)cc4F)n3)cc2Cl)nc2c(F)cc(C(=O)O)cc21 (centres unmarked) [Example 346, 2-(2-chloro-4-(6-((4-cyano-2-fluorobenzyl)oxy)-5-fluoropyridin-2-yl)-5-fluorobenzyl)-1-(4,4-dimethyltetrahydrofuran-3-yl)-4-fluoro-1H-benzo[d]imidazole-6-carboxylic acid]"
10,0.132,"CC1(C)COCC1n1c(Cc2cc(F)c(-c3ccc(F)c(OCc4ccc(Cl)cc4F)n3)cc2F)nc2c(F)cc(C(=O)O)cc21 (centres unmarked) [Example 347, 2-(4-(6-((4-chloro-2-fluorobenzyl)oxy)-5-fluoropyridin-2-yl)-2,5-difluorobenzyl)-1-(4,4-dimethyltetrahydrofuran-3-yl)-4-fluoro-1H-benzo[d]imidazole-6-carboxylic acid]"
11,0.55,"CC1(C)COCC1n1c(Cc2cc(F)c(-c3nccc(OCc4ccc(Cl)cc4F)n3)cc2F)nc2c(F)cc(C(=O)O)cc21 (centres unmarked) [Example 348, 2-(4-(4-((4-chloro-2-fluorobenzyl)oxy)pyrimidin-2-yl)-2,5-difluorobenzyl)-1-(4,4-dimethyltetrahydrofuran-3-yl)-4-fluoro-1H-benzo[d]imidazole-6-carboxylic acid]"
12,0.042,"COC(=O)N1Cc2ccc(COc3cccc(-c4cc(F)c(Cc5nc6c(F)cc(C(=O)O)cc6n5C[C@@H]5CCO5)cc4F)n3)cc2C1 [Example 349, 2-[[2,5-difluoro-4-[6-[(2-methoxycarbonylisoindolin-5-yl)methoxy]-2-pyridyl]phenyl]methyl]-7-fluoro-3-[[(2S)-oxetan-2-yl]methyl]benzimidazole-5-carboxylic acid]"
13,0.171,"COCCn1c(Cc2cc(F)c(-c3cccc(OCc4ccc(-n5ccnn5)nc4)n3)cc2Cl)nc2c(F)cc(C(=O)O)cc21 [Example 350, 2-(4-(6-((6-(1H-1,2,3-triazol-1-yl)pyridin-3-yl)methoxy)pyridin-2-yl)-2-chloro-5-fluorobenzyl)-4-fluoro-1-(2-methoxyethyl)-1H-benzo[d]imidazole-6-carboxylic acid]"
14,0.074,"COCCn1c(Cc2cc(F)c(-c3cccc(OCc4ccc(C#N)cc4F)n3)cc2Cl)nc2c(F)cc(C(=O)O)cc21 [Example 351, 2-(2-chloro-4-(6-((4-cyano-2-fluorobenzyl)oxy)pyridin-2-yl)-5-fluorobenzyl)-4-fluoro-1-(2-methoxyethyl)-1H-benzo[d]imidazole-6-carboxylic acid]"
15,0.535,"CO[C@H](C)Cn1c(Cc2cc(F)c(-c3cccc(OCc4ccc(-n5ccnn5)nc4)n3)cc2F)nc2c(F)cc(C(=O)O)cc21 [Example 352, (R)-2-(4-(6-((6-(1H-1,2,3-triazol-1-yl)pyridin-3-yl)methoxy)pyridin-2-yl)-2,5-difluorobenzyl)-4-fluoro-1-(2-methoxypropyl)-1H-benzo[d]imidazole-6-carboxylic acid]"
16,1.18,"CO[C@H](C)Cn1c(Cc2cc(F)c(-c3cccc(OCc4cc(F)c(Cl)cc4F)n3)cc2F)nc2c(F)cc(C(=O)O)cc21 [Example 353, (R)-2-(4-(6-((4-chloro-2,5-difluorobenzyl)oxy)pyridin-2-yl)-2,5-difluorobenzyl)-4-fluoro-1-(2-methoxypropyl)-1H-benzo[d]imidazole-6-carboxylic acid]"
17,0.528,"CO[C@H](C)Cn1c(Cc2cc(F)c(-c3cccc(OCc4ccc(-n5ccnn5)cc4F)n3)cc2F)nc2c(F)cc(C(=O)O)cc21 [Example 354, (R)-2-(2,5-difluoro-4-(6-((2-fluoro-4-(1H-1,2,3-triazol-1-yl)benzyl)oxy)pyridin-2-yl)benzyl)-4-fluoro-1-(2-methoxypropyl)-1H-benzo[d]imidazole-6-carboxylic acid]"
